For the data set the following is noted: buffer; pH 7.4; 6.0 h; 150.0 µM.

This is an account of results in PubChem BioAssay AID1645848.

The structures appear in SMILES notation. ≈ marks a conversion by molar mass, not a printed value.

`Cc1ccc(-c2cc(C(=O)Nc3ncco3)c3ccccc3n2)cc1C` displayed a solubility (kinetic) of 4.24 µg/mL (≈ 12.3 µM).

In the case of `Cc1ccc(-n2ncc3c(NCCCn4ccnc4)ncnc32)cc1Cl`, the solubility (kinetic) worked out at 4.07 µg/mL (≈ 11.1 µM).

Take `Cn1cc(S(=O)(=O)N2CCCCCC2)cc1C(=O)Nc1ccc(Cl)c(C(F)(F)F)c1`: the kinetic solubility is under 1 µg/mL.

In the case of `NC(=O)C1CCN(c2nc(-c3ccc(Br)cc3)cs2)CC1`, the kinetic solubility is under 1 µg/mL.

`O=C1CCCC2=C1C(c1[nH]ncc1Cl)N=C(Nc1nc3ccccc3o1)N2` (stereo not drawn) had a kinetic solubility of under 1 µg/mL.

`Fc1ccc(Nc2nc(Nc3ccncc3)nc3ccccc23)cc1F` returned a solubility (kinetic) of 2.19 µg/mL (≈ 6.25 µM).

Take `Cc1cccc(-n2cnc3cc(C(=O)N4CCCCCC4)ccc32)c1`: the kinetic solubility turned out to be 41.2 µg/mL (≈ 124 µM).

In turn, `COc1ccc(-c2noc([C@@H]3Cc4nc[nH]c4CN3C(=O)NC3CCCCC3)n2)cc1` showed a kinetic solubility of 30.5 µg/mL (≈ 72.1 µM).

`O=C1Nc2ccc(Cl)cc2/C1=C\c1cc(Cl)c(O)c(Cl)c1` displayed a kinetic solubility of 19 µg/mL (≈ 55.8 µM).

`CCN(CCCOc1ccc2c(Nc3cc(CC(=O)Nc4cccc(F)c4)[nH]n3)ncnc2c1)CCOP(=O)(O)O` returned a solubility (kinetic) of over 87 µg/mL.

Take `COc1oc(-c2cccc3ccccc23)nc1C(=O)O`: the kinetic solubility is over 40 µg/mL.

For the compound `Cc1ccc(C)c(CN2C(=O)c3ccccc3S(=O)c3ccc(C(=O)N4CCN(c5ccccc5F)CC4)cc32)c1` (stereo not drawn), the solubility (kinetic) was under 1 µg/mL.

In turn, `CC(C)c1c(-c2ccccc2)nc2c(C#N)c[nH]n2c1=O` had a solubility (kinetic) of over 41 µg/mL.

Compound `CCOc1ccc(CCNC(=O)c2cc3ncccc3n2Cc2cccc(C)c2)cc1OCC` gave a solubility (kinetic) of 36.5 µg/mL (≈ 79.7 µM).

In turn, `COc1cc2c(cc1-c1c(C)noc1C)ncc1[nH]c(=O)n([C@H](C)c3ccccn3)c12` gave a solubility (kinetic) of over 61 µg/mL.

Compound `COc1ccc(CN2CCN(C(=O)c3cc4c(s3)CCC4)CC2)cc1` registered a solubility (kinetic) of over 53 µg/mL.

For the compound `Cc1nc2sccn2c(=O)c1S(=O)(=O)Nc1ccc(N2CCN(S(C)(=O)=O)CC2)cc1`, the solubility (kinetic) was found to be 6.85 µg/mL (≈ 14.2 µM).

Take `COc1cccc(-c2nc(-c3cc4cc(OC)ccc4[nH]c3=O)no2)c1`: the solubility (kinetic) was under 1 µg/mL.

As to `COc1c(Cl)cc2c([nH]c3cnccc32)c1NC(=O)c1cccnc1C`, the kinetic solubility was found to be 6.08 µg/mL (≈ 16.6 µM).

`NS(=O)(=O)c1ccc(NC(=O)c2cc3ncccn3n2)cc1` showed a kinetic solubility of 5.17 µg/mL (≈ 16.3 µM).

Compound `CNc1nc2c(s1)C(c1ccc(Cl)cc1)CC(=O)N2` (stereo not drawn) came in with a kinetic solubility of 10.8 µg/mL (≈ 36.6 µM).

The compound `CNc1ccc(Br)cc(C(=O)/C=C/c2ccc(OC)cc2OC)c1=O` registered a kinetic solubility of 1.94 µg/mL (≈ 4.8 µM).

For `Cc1noc(C)c1-c1ccc2ncnc(NCc3ccc4[nH]ccc4c3)c2c1`, the kinetic solubility is under 1 µg/mL.

In turn, `Cc1ccccc1C(=O)Nc1nc2c(s1)CC(C(C)(C)C)CC2` (stereo not drawn) registered a solubility (kinetic) of under 1 µg/mL.

The compound `O=C(Nc1cccc(S(=O)(=O)C(F)(F)F)c1)c1ccccc1NC(=O)c1ccccc1OCC(F)(F)F` yielded a kinetic solubility of under 1 µg/mL.

In turn, `CC(C)(C)OC(=O)N[C@@H](Cc1ccc(O[S+](=O)([O-])c2cccc3cnccc23)cc1)C(=O)N1CCN(Cc2ccccc2)CC1` displayed a solubility (kinetic) of under 1 µg/mL.

As for `O=C1NCc2cc(-c3cc4c(ccn4Cc4ccncc4)c(N4CCOCC4)n3)ccc21`, the kinetic solubility is over 94 µg/mL.

`Cc1cnc(-c2ccccc2C2COC2)nc1NCC1CCN(c2cccnc2)CC1` registered a solubility (kinetic) of over 61 µg/mL.

Consider `CCOC(=O)[C@H]1O[C@@H]1C(=O)N[C@@H](CC(C)C)C(=O)NCCC(C)C`, for which the solubility (kinetic) was 24 µg/mL (≈ 70.1 µM).

Take `COc1cccc(CNc2ccc(S(=O)(=O)Nc3nc(C)cs3)cc2)c1O`: the solubility (kinetic) amounted to 42.7 µg/mL (≈ 105 µM).

Turning to `Cc1cc(S(=O)(=O)Nc2cnccc2C(=O)Nc2nc(-c3ccccc3)cs2)c(C)o1`, the kinetic solubility was over 67 µg/mL.

`CC(C)c1ccc(OCc2nc3c(n2Cc2ccccc2)C(=O)N(CC2CC2)CCN3)cc1`: the solubility (kinetic) was under 1 µg/mL.

Consider `O=S(=O)(Nc1nccs1)c1ccc(NCc2cccc(F)c2O)cc1`, for which the kinetic solubility is over 56 µg/mL.

For the compound `CCCCCCC.CN1C(=O)CN=C(c2ccc[nH]2)c2cc(Cl)ccc21`, the kinetic solubility is over 40 µg/mL.

With `O=C(Cc1ccc(-c2csc(Nc3ccc(F)cc3)n2)s1)N1CCOCC1`, the kinetic solubility came out at 2.31 µg/mL (≈ 5.73 µM).

On to `Nc1ncc(S(=O)(=O)N2CCN(c3ccccc3)CC2)cn1`, for which the solubility (kinetic) was found to be 1.13 µg/mL (≈ 3.53 µM).

Take `Cn1c(=O)cc(C(=O)NC2CCCc3c2[nH]c2c(Cl)cccc32)c2ccccc21` (stereo not drawn): the kinetic solubility was under 1 µg/mL.

Take `Cc1ccc(-c2cc(C(=O)Nc3ccc(-n4cccn4)cc3)c3ccccc3n2)cc1C`: the kinetic solubility is under 1 µg/mL.

As for `O=C(Nc1nc(-c2ccccc2)cs1)c1ccncc1NS(=O)(=O)c1c(F)cc(F)cc1F`, the kinetic solubility turned out to be 58 µg/mL (≈ 118 µM).

Take `CCOc1ccccc1N(CC(=O)N1CCOCC1)S(=O)(=O)c1ccc(SC)cc1`: the kinetic solubility was over 67 µg/mL.

Consider `Cc1ccc(S(=O)(=O)Nc2cnccc2C(=O)Nc2nc(-c3cccc(F)c3)cs2)cc1`, for which the kinetic solubility turned out to be 0.167 µg/mL (≈ 0.356 µM).

For the compound `Cc1ccc(Cl)cc1NS(=O)(=O)c1cc2c(cc1F)NC(=O)CC2`, the solubility (kinetic) stood at 1.76 µg/mL (≈ 4.79 µM).

`NC(=O)C1CCN(c2ncc(-c3cccc(F)c3)s2)CC1` came in with a solubility (kinetic) of 17.7 µg/mL (≈ 58.1 µM).

In the case of `COc1cc(-c2ccnc3c2c(C)nn3-c2cccc(C(F)(F)F)c2)ccc1O`, the solubility (kinetic) was 16.5 µg/mL (≈ 41.2 µM).

`Cc1nnn(C)c1-c1cnc2c3ccc(C(C)(C)O)cc3n([C@H](c3ccccc3)C3CCOCC3)c2c1` showed a kinetic solubility of 29.6 µg/mL (≈ 59.6 µM).

`O=C1Nc2ccccc2C12CC2c1cc(Cl)c(O)c(Cl)c1` (stereo not drawn) showed a kinetic solubility of under 1 µg/mL.

Regarding `NC(=O)C1CCN(c2nc(-c3ccc4occc(=O)c4c3)cs2)CC1`, the kinetic solubility was over 52 µg/mL.

For `O=C1NC(=O)C(c2cnc3ccccn23)=C1c1cn2c3c(cccc13)CN(C(=O)N1CCOCC1)CC2`, the kinetic solubility was over 73 µg/mL.

In the case of `COc1ccccc1NS(=O)(=O)c1cccc(NC(=O)c2[nH]c(C)c(C(C)=O)c2C)c1`, the kinetic solubility was determined as 15.2 µg/mL (≈ 34.4 µM).

In turn, `COc1ccc(-c2csc(CCn3nc(C)c4c(C(F)(F)F)cc(=O)[nH]c43)n2)cc1` displayed a solubility (kinetic) of under 1 µg/mL.

In turn, `COc1cnccc1-c1nc(Nc2ccc(F)c(F)c2)c2ccccc2n1` came in with a kinetic solubility of over 54 µg/mL.

In the case of `CCN(CC)S(=O)(=O)c1ccc(N2CCCC2)c(NS(=O)(=O)c2ccc(C)cc2)c1`, the solubility (kinetic) was 4.02 µg/mL (≈ 8.91 µM).

Take `Cc1cc(NS(=O)(=O)c2ccc3c(c2)CCC(=O)N3)ccc1F`: the kinetic solubility is over 49 µg/mL.

In turn, `NCC(=O)Nc1ccc(Cl)cc1C(=O)c1ccc[nH]1` yielded a solubility (kinetic) of over 41 µg/mL.

On to `COc1cc2c(Oc3ccc(-c4cnc(Nc5ccc(F)cc5)n(C)c4=O)cc3F)ccnc2cc1OCCCN1CCOCC1`, for which the solubility (kinetic) is under 1 µg/mL.

For `Cc1ccnc(NC(=S)N2CCN(c3ncc(C(F)(F)F)cc3Cl)CC2)c1`, the kinetic solubility turned out to be 12 µg/mL (≈ 29 µM).

Take `Cc1ccnc(NC(=S)N2CCN(c3cc(C(F)(F)F)cc(C(F)(F)F)c3)CC2)c1`: the kinetic solubility was 6.7 µg/mL (≈ 14.9 µM).

`CC(=O)NC(c1cccs1)c1cc(Br)c2cccnc2c1O` (stereo not drawn) registered a kinetic solubility of under 1 µg/mL.

`COc1cccc(CNCCSc2nnnn2C)c1OCc1ccc(Cl)cc1Cl` gave a kinetic solubility of 16.6 µg/mL (≈ 36.4 µM).

Compound `COc1ccc(C2(C(=O)N3CCC(n4cc(-c5nc(C)no5)nn4)CC3)CC2)cc1` returned a kinetic solubility of over 60 µg/mL.

Regarding `Nc1c(C(=O)Nc2ccc(Cl)cc2)sc2nc3c(cc12)N1CCC3CC1`, the kinetic solubility was under 1 µg/mL.

Compound `Cc1c(Cl)cccc1NC(=O)CNS(=O)(=O)c1cccs1` displayed a kinetic solubility of over 51 µg/mL.

Regarding `N#Cc1ccccc1-c1csc(N2CCC(C(N)=O)CC2)n1`, the solubility (kinetic) stood at 36.9 µg/mL (≈ 118 µM).

Broadly, the kinetic solubility is the concentration staying in solution when a stock, usually in DMSO, is diluted into the medium.
